Literature values as cited in article PMC8696521 (RSC Advances, 2021).
Read-outs that look alike come from different tables or passages of the source. Blank lines part the entries; values can stand above or below the substance they belong to.

What was measured:
[1] = system: ACE; settings: for Category of ACEI peptide by interaction with ACE: reduced IC50 values following incubation with ACE
[2] = peptide from P. fucata muscle

Substance: FHAPWK
ACE inhibition pattern [1]: competitive inhibitors

Substance: GAGLPGKRER
Antioxidant activity [2]: strong antioxidant activity

ACEI IC50 ([1]; from pearl oyster shell protein hydrolysate): 5.82 µg/mL
Substance: GVGSPY

Substance: IKPVA
Category of ACEI peptide by interaction with ACE [1]: pro-drug substrates

Substance: IKPVQ
Category of ACEI peptide by interaction with ACE [1]: pro-drug substrates

IC50 ([1]; read-out: ACEI IC50): 110 nM
Substance: LIVT

Substance: LSGYGP
ACE inhibition pattern [1]: noncompetitive

Substance: VVSLSIPR
ACE inhibition pattern [1]: competitive inhibitors

Substance: WVYY
ACE inhibition pattern ([1]; hemp seed protein hydrolysate peptides): mixed-mode type of ACE inhibition
